Experimental data as given in article PMC9696335, “Natural Inhibitors Targeting the Localization of Lipoprotein System in Vibrio parahaemolyticus” (International Journal of Molecular Sciences, 2022).

How the values were obtained:
LolB [1] = target: T1, LolB (Vibrio parahaemolyticus, UniProt Q87RN6); assay: intrinsic fluorescence quenching of purified LolB (Stern-Volmer Ksv; Kd only said to be micromolar); assay type: binding
T1 construct: Residues 26-212, N-terminal His6 tag

LolB [2] = target: T1, LolB; assay: intrinsic fluorescence quenching of purified LolB, one-site binding fit

T1 sequence (Q87RN6 17-203): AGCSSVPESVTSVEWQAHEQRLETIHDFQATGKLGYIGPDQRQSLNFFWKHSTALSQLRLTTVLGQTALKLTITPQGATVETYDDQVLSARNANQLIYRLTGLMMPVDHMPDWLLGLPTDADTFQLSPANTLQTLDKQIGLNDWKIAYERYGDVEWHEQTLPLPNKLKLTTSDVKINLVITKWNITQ

Structure (SMILES)	Ksv (10^4 L/mol) (LolB [1])	Kd (LolB [2]) [µM]
C[C@@H]1O[C@@H](OC[C@H]2O[C@@H](Oc3c(-c4ccc(OCCO)c(OCCO)c4)oc4cc(OCCO)cc(O)c4c3=O)[C@H](O)[C@@H](O)[C@@H]2O)[C@H](O)[C@H](O)[C@H]1O [troxerutin]	14.2317 10^4 L/mol	
C[C@@H]1O[C@@H](OC[C@H]2O[C@@H](Oc3c(-c4ccc(O)c(O)c4)oc4cc(O)cc(O)c4c3=O)[C@H](O)[C@@H](O)[C@@H]2O)[C@H](O)[C@H](O)[C@H]1O [rutin]	8.7014 10^4 L/mol	
C=C1C[C@@]23CC[C@H]4[C@@](C)(CCC[C@@]4(C)C(=O)O[C@@H]4O[C@H](CO)[C@@H](O)[C@H](O)[C@H]4O)[C@@H]2CC[C@]1(O[C@@H]1O[C@H](CO)[C@@H](O)[C@H](O)[C@H]1O[C@@H]1O[C@H](CO)[C@@H](O)[C@H](O)[C@H]1O)C3 [stevioside]	6.1570 10^4 L/mol	
Oc1cc(O)c2c(c1)O[C@@H](c1ccc(O)c(O)c1)[C@@H](O[C@]1(c3ccc(O)c(O)c3)Oc3cc(O)cc(O)c3[C@@H](O)[C@H]1O)C2 [procyanidin]		14.7 ± 4.65
